Test results: PubChem BioAssay AID256 (DTP/NCI, 2004)
Several values for one entry are separate records, joined by “and”; a condition that tells them apart may be missing. Equal values may be shown once. Toxic doses and inconclusive results are not listed.

Tested on: CD2F1 mice, L1210 leukemia ip, survival T/C
Assay: NCI In Vivo Anticancer Drug Screen. Data for tumor model L1210 Leukemia (intraperitoneal) in CD2F1 (CDF1) mice
Settings: higher = longer survival
Procedure, shortened: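 Activity against a transplanted murine tumor was judged by comparing the compound group with a vehicle group. The outcome in the treated animals was divided by that in the controls.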

[1] = endpoint: mean survival time, dose: 6.25 mg/kg/injection, schedule: Q01DX009 (ip), vehicle: saline with Tween-80
[2] = endpoint: mean survival time, dose: 6.25 mg/kg/injection, schedule: Q04DX003 (ip), vehicle: saline with Tween-80
[3] = endpoint: mean survival time, dose: 12.5 mg/kg/injection, schedule: Q01DX009 (ip), vehicle: saline with Tween-80
[4] = endpoint: mean survival time, dose: 12.5 mg/kg/injection, schedule: Q04DX003 (ip), vehicle: saline with Tween-80
[5] = endpoint: mean survival time, dose: 25.0 mg/kg/injection, schedule: Q01DX009 (ip), vehicle: saline with Tween-80
[6] = endpoint: mean survival time, dose: 25.0 mg/kg/injection, schedule: Q04DX003 (ip), vehicle: saline with Tween-80
[7] = endpoint: mean survival time, dose: 50.0 mg/kg/injection, schedule: Q01DX009 (ip), vehicle: saline with Tween-80
[8] = endpoint: mean survival time, dose: 100.0 mg/kg/injection, schedule: Q04DX003 (ip), vehicle: saline with Tween-80
[9] = endpoint: mean survival time, dose: 75.0 mg/kg/injection, schedule: Q01DX001 (ip), vehicle: saline
[10] = endpoint: mean survival time, dose: 100.0 mg/kg/injection, schedule: Q01DX009 (ip), vehicle: saline with Tween-80
[11] = endpoint: mean survival time, dose: 200.0 mg/kg/injection, schedule: Q01DX001 (ip), vehicle: saline
[12] = endpoint: mean survival time, dose: 200.0 mg/kg/injection, schedule: Q04DX003 (ip), vehicle: saline with Tween-80
[13] = endpoint: mean survival time, dose: 400.0 mg/kg/injection, schedule: Q04DX003 (ip), vehicle: saline with Tween-80
[14] = endpoint: mean survival time, dose: 200.0 mg/kg/injection, schedule: Q01DX009 (ip), vehicle: saline with Tween-80
[15] = endpoint: mean survival time, dose: 25.0 mg/kg/injection, schedule: Q04DX003 (ip), vehicle: saline
[16] = endpoint: mean survival time, dose: 50.0 mg/kg/injection, schedule: Q04DX003 (ip), vehicle: saline
[17] = endpoint: mean survival time, dose: 100.0 mg/kg/injection, schedule: Q04DX003 (ip), vehicle: saline

CCN(CC)CCOc1ccc(/C(=C(\Cl)c2ccccc2)c2ccccc2)cc1
T/C (endpoint: mean survival time, dose: 3.12 mg/kg/injection, schedule: Q04DX003 (ip), vehicle: saline with Tween-80): 100 % of control | T/C (endpoint: mean survival time, dose: 3.13 mg/kg/injection, schedule: Q01DX009 (ip), vehicle: saline with Tween-80): 104 % of control | T/C [1]: 102 % of control | T/C [2]: 94 % of control | T/C [3]: 105 % of control | T/C [4]: 97 % of control | T/C [5]: 107 % of control | T/C [6]: 97 % of control | T/C [7]: 91 % of control | T/C (endpoint: mean survival time, dose: 50.0 mg/kg/injection, schedule: Q04DX003 (ip), vehicle: saline with Tween-80): 100 % of control | T/C [8]: 105 % of control

C[N+]1(C)CCC(c2ccccc2)(c2ccccc2)C(=O)C1
T/C [9]: 101 % of control | T/C (endpoint: mean survival time, dose: 150.0 mg/kg/injection, schedule: Q01DX001 (ip), vehicle: saline): 101 % of control

CCN(CC)CCN1CC2C3C=CC(C3)C2C1 (stereo not given)
T/C [5]: 97 % of control | T/C [7]: 100 % of control | T/C [10]: 102 % of control and 104 % of control

O=Cc1c2ccccc2cc2ccccc12
T/C (endpoint: mean survival time, dose: 89.0 mg/kg/injection, schedule: Q01DX001 (ip), vehicle: saline): 170 % of control | T/C (endpoint: mean survival time, dose: 133.0 mg/kg/injection, schedule: Q01DX001 (ip), vehicle: saline): 167 % of control | T/C [11]: 162 % of control

CCc1c(Br)c(CC)c(CC)c(CC)c1CC
T/C [8]: 98 % of control | T/C [12]: 98 % of control | T/C [13]: 97 % of control

CC(=O)Nc1sc2c(c1C#N)CCCC2
T/C [8]: 93 % of control | T/C [12]: 93 % of control | T/C [13]: 101 % of control

Oc1cc(N2CC2)c(O)cc1N1CC1
T/C (endpoint: mean survival time, dose: 0.07 mg/kg/injection, schedule: Q01DX009 (ip), vehicle: saline): 111 % of control | T/C (endpoint: mean survival time, dose: 0.15 mg/kg/injection, schedule: Q01DX009 (ip), vehicle: saline): 116 % of control

CC(C)=NO
T/C [8]: 109 % of control | T/C [12]: 90 % of control

CC1COCC(C)N1N=Nc1ccccc1-c1nc(N)c2ccccc2n1 (stereo not given)
T/C (endpoint: mean survival time, dose: 100.0 mg/kg/injection, schedule: Q04DX002 (ip), vehicle: Klucel (hydroxypropylcellulose) (HPC)): 88 % of control | T/C (endpoint: mean survival time, dose: 200.0 mg/kg/injection, schedule: Q04DX002 (ip), vehicle: Klucel (hydroxypropylcellulose) (HPC)): 92 % of control | T/C (endpoint: mean survival time, dose: 400.0 mg/kg/injection, schedule: Q04DX002 (ip), vehicle: Klucel (hydroxypropylcellulose) (HPC)): 98 % of control

CC(=O)Oc1ccc2ncccc2c1Cc1c(OC(C)=O)ccc2ncccc12
T/C [9]: 90 % of control | T/C (endpoint: mean survival time, dose: 300.0 mg/kg/injection, schedule: Q01DX001 (ip), vehicle: saline): 91 % of control

COc1ccc2c(c1)CCCC2=O
T/C [10]: 102 % of control | T/C [8]: 90 % of control | T/C [14]: 94 % of control | T/C [12]: 93 % of control | T/C [13]: 98 % of control

O=C(O)c1cccnc1Cl
T/C (endpoint: mean survival time, dose: 75.0 mg/kg/injection, schedule: Q01DX009 (ip), vehicle: Klucel (hydroxypropylcellulose) (HPC)): 111 % of control | T/C (endpoint: mean survival time, dose: 150.0 mg/kg/injection, schedule: Q01DX009 (ip), vehicle: Klucel (hydroxypropylcellulose) (HPC)): 94 % of control

[Cl][Pt+2][Cl].[NH-]CC1(C[NH-])CCC1
T/C (endpoint: mean survival time, dose: 3.12 mg/kg/injection, schedule: Q04DX003 (ip), vehicle: saline): 111 % of control | T/C (endpoint: mean survival time, dose: 12.5 mg/kg/injection, schedule: Q04DX003 (ip), vehicle: saline): 229 % of control | T/C [15]: 272 % of control | T/C [16]: 174 % of control and 231 % of control | T/C [17]: 164 % of control and 335 % of control | T/C (endpoint: mean survival time, dose: 200.0 mg/kg/injection, schedule: Q04DX003 (ip), vehicle: saline): 90 % of control | T/C (endpoint: median survival time, dose: 0.1 mg/kg/injection, schedule: Q01DX009 (ip), vehicle: Klucel (hydroxypropylcellulose) (HPC)): 111 % of control | T/C (endpoint: median survival time, dose: 0.2 mg/kg/injection, schedule: Q01DX009 (ip), vehicle: Klucel (hydroxypropylcellulose) (HPC)): 111 % of control | T/C (endpoint: median survival time, dose: 1.5 mg/kg/injection, schedule: Q01DX009 (ip), vehicle: carboxymethylcellulose (CMC)): 239 % of control | T/C (endpoint: median survival time, dose: 3.0 mg/kg/injection, schedule: Q01DX009 (ip), vehicle: carboxymethylcellulose (CMC)): 281 % of control | T/C (endpoint: median survival time, dose: 3.12 mg/kg/injection, schedule: Q01DX009 (ip), vehicle: Klucel (hydroxypropylcellulose) (HPC)): 222 % of control and 320 % of control | T/C (endpoint: median survival time, dose: 3.13 mg/kg/injection, schedule: Q01DX009 (ip), vehicle: Klucel (hydroxypropylcellulose) (HPC)): 169 % of control and 206 % of control | T/C (endpoint: median survival time, dose: 6.0 mg/kg/injection, schedule: Q01DX001 (ip), vehicle: carboxymethylcellulose (CMC)): 171 % of control | T/C (endpoint: median survival time, dose: 8.0 mg/kg/injection, schedule: Q01DX001 (ip), vehicle: other): 186 % of control | T/C (endpoint: median survival time, dose: 9.0 mg/kg/injection, schedule: Q01DX001 (ip), vehicle: carboxymethylcellulose (CMC)): 176 % of control | T/C (endpoint: median survival time, dose: 9.0 mg/kg/injection, schedule: Q01DX009 (ip), vehicle: carboxymethylcellulose (CMC)): 114 % of control | T/C (endpoint: median survival time, dose: 12.0 mg/kg/injection, schedule: Q01DX001 (ip), vehicle: carboxymethylcellulose (CMC)): 203 % of control | T/C (endpoint: median survival time, dose: 12.0 mg/kg/injection, schedule: Q01DX001 (ip), vehicle: other): 212 % of control | T/C (endpoint: median survival time, dose: 15.0 mg/kg/injection, schedule: Q01DX001 (ip), vehicle: carboxymethylcellulose (CMC)): 203 % of control | T/C (endpoint: median survival time, dose: 16.0 mg/kg/injection, schedule: Q01DX001 (ip), vehicle: other): 242 % of control | T/C (endpoint: median survival time, dose: 20.0 mg/kg/injection, schedule: Q01DX001 (ip), vehicle: other): 103 % of control

O=S(=O)(Nc1cc(N2CCCCC2)c(NS(=O)(=O)c2ccccc2)cc1N1CCCCC1)c1ccccc1
T/C (endpoint: mean survival time, dose: 100.0 mg/kg/injection, schedule: Q01DX001 (ip), vehicle: Klucel (hydroxypropylcellulose) (HPC)): 88 % of control | T/C (endpoint: mean survival time, dose: 200.0 mg/kg/injection, schedule: Q01DX001 (ip), vehicle: Klucel (hydroxypropylcellulose) (HPC)): 98 % of control | T/C (endpoint: mean survival time, dose: 400.0 mg/kg/injection, schedule: Q01DX001 (ip), vehicle: Klucel (hydroxypropylcellulose) (HPC)): 90 % of control

CC1=CC(C)(C)Nc2ccc(CSc3ccccc3)cc21
T/C (endpoint: mean survival time, dose: 12.5 mg/kg/injection, schedule: Q01DX009 (ip), vehicle: DMSO): 102 % of control | T/C (endpoint: mean survival time, dose: 25.0 mg/kg/injection, schedule: Q01DX009 (ip), vehicle: DMSO): 95 % of control | T/C (endpoint: mean survival time, dose: 25.0 mg/kg/injection, schedule: Q01DX009 (ip), vehicle: other): 97 % of control | T/C (endpoint: mean survival time, dose: 50.0 mg/kg/injection, schedule: Q01DX009 (ip), vehicle: DMSO): 97 % of control | T/C (endpoint: mean survival time, dose: 50.0 mg/kg/injection, schedule: Q01DX009 (ip), vehicle: other): 93 % of control | T/C (endpoint: mean survival time, dose: 100.0 mg/kg/injection, schedule: Q01DX009 (ip), vehicle: other): 96 % of control

O=C1C2CCCC1C1/C(=[N+](/[O-])O)C=C([N+](=O)[O-])C2C1[N+](=O)[O-] (stereo not given)
T/C (endpoint: mean survival time, dose: 100.0 mg/kg/injection, schedule: Q04DX002 (ip), vehicle: saline with Tween-80): 98 % of control | T/C (endpoint: mean survival time, dose: 200.0 mg/kg/injection, schedule: Q04DX002 (ip), vehicle: saline with Tween-80): 98 % of control | T/C (endpoint: mean survival time, dose: 400.0 mg/kg/injection, schedule: Q04DX002 (ip), vehicle: saline with Tween-80): 110 % of control

O=C(Nc1ccccc1)OCCCl
T/C [8]: 100 % of control | T/C [12]: 97 % of control | T/C [13]: 100 % of control

CN(C)CCCn1c2ccccc2c2cnccc21
T/C [15]: 98 % of control | T/C [16]: 110 % of control | T/C [17]: 113 % of control

Nc1ncnc2c1ncn2CC(N)C(=O)O (stereo not given)
T/C (endpoint: mean survival time, dose: 100.0 mg/kg/injection, schedule: Q01DX001 (ip), vehicle: saline): 103 % of control | T/C [11]: 107 % of control | T/C (endpoint: mean survival time, dose: 400.0 mg/kg/injection, schedule: Q01DX001 (ip), vehicle: saline): 105 % of control

CCSC1CCS(=O)(=O)C1 (stereo not given)
T/C [7]: 93 % of control | T/C [10]: 93 % of control | T/C [14]: 97 % of control

CC(C)CCCC(C)C1C(O)CC2C3CCC4CC(O)CCC4(C)C3CCC21C (stereo not given)
T/C (endpoint: mean survival time, dose: 25.0 mg/kg/injection, schedule: Q01DX001 (ip), vehicle: saline with Tween-80): 103 % of control | T/C (endpoint: mean survival time, dose: 50.0 mg/kg/injection, schedule: Q01DX001 (ip), vehicle: saline with Tween-80): 95 % of control | T/C (endpoint: mean survival time, dose: 100.0 mg/kg/injection, schedule: Q01DX001 (ip), vehicle: saline with Tween-80): 97 % of control

O=[N+]([O-])/C(=C/c1ccccc1)c1ccccc1
T/C [1]: 107 % of control | T/C [2]: 101 % of control | T/C [3]: 105 % of control | T/C [4]: 97 % of control | T/C [5]: 103 % of control | T/C [6]: 101 % of control
